Reference: ChEMBL document CHEMBL1158461, “The role of amphiphilicity and negative charge in glycoprotein 41 interactions in the hydrophobic pocket” (J Med Chem, 2009)

Assay: Displacement of C27-Aib-lucifer yellow from HIV1 envelope glycoprotein gp41 Fe(env3.0)3 receptor by fluorescence assay
Parameters: species or system Human immunodeficiency virus 1

Question: Which Ki does the source give for `CC[C@@H](C)[C@H](NC(=O)[C@H](CCC(=O)O)NC(=O)[C@H](CCCNC(=N)N)NC(=O)[C@H](CC(=O)O)NC(=O)[C@H](Cc1c[nH]c2ccccc12)NC(=O)[C@H](CCC(=O)O)NC(=O)C(C)(C)NC(=O)[C@H](Cc1c[nH]c2ccccc12)NC(=O)[C@@H](NC(=O)[C@@H](NC(=O)[C@H](Cc1cnc[nH]1)NC(=O)[C@H](CC(N)=O)NC(=O)[C@H](Cc1c[nH]c2ccccc12)NC(=O)C(C)(C)NC(=O)[C@H](CCC(N)=O)NC(=O)[C@H](CCC(=O)O)NC(=O)[C@H](CC(C)C)NC(=O)[C@H](CO)NC(=O)[C@H](CCCCN)NC(C)=O)[C@@H](C)O)[C@@H](C)O)C(=O)NC(C)(C)C(=O)N[C@@H](CC(N)=O)C(=O)N[C@@H](Cc1ccc(O)cc1)C(=O)N[C@H](C(=O)N[C@@H](CO)C(=O)N[C@@H](CC(C)C)C(=O)N[C@H](C(=O)N[C@@H](CS)C(N)=O)[C@@H](C)CC)[C@@H](C)O` here?
Answer: 1200 nM

Assay: Displacement of C32-Aib-fluorescein from HIV1 envelope glycoprotein gp41 Fe(env5.0)3 receptor by fluorescence assay
Parameters: species or system Human immunodeficiency virus 1

Question: With `CC[C@H](C)[C@H](NC(=O)[C@H](C)NC(=O)[C@H](CCCNC(=N)N)NC(=O)[C@H](CC(=O)O)NC(=O)[C@H](Cc1c[nH]c2ccccc12)NC(=O)[C@H](C)NC(=O)[C@H](CCC(=O)O)NC(=O)[C@H](Cc1c[nH]c2ccccc12)NC(=O)[C@@H](NC(=O)[C@@H](NC(C)=O)[C@H](C)O)[C@H](C)O)C(=O)N[C@@H](C)C(=O)N[C@@H](CCC(=O)O)C(=O)N[C@@H](Cc1ccc(O)cc1)C(=O)N[C@@H](C)C(=O)N[C@@H](C)C(=O)N[C@@H](CCCNC(=N)N)C(=O)N[C@H](C(=O)N[C@@H](CCC(=O)O)C(=O)N[C@@H](C)C(=O)N[C@@H](CC(C)C)C(=O)N[C@H](C(=O)N[C@@H](CCCNC(=N)N)C(=O)N[C@@H](C)C(=O)N[C@@H](C)C(=O)N[C@@H](CCC(N)=O)C(=O)N[C@@H](CCC(=O)O)C(=O)N[C@@H](CCC(N)=O)C(=O)N[C@@H](CCC(N)=O)C(=O)N[C@@H](CCC(=O)O)C(=O)N[C@@H](CCCCN)C(=O)N[C@@H](CC(N)=O)C(=O)N[C@@H](CS)C(N)=O)[C@@H](C)CC)[C@@H](C)CC` as the compound, how does the Ki read?
Answer: 7 nM

Assay: Critical micellar concentration of the compound

Question: With `CCCCCCCCCCCCCCS(=O)(=O)[O-].[Na+]` as the compound, how does the CMC read?
Answer: 600 µM

Question: Which CMC does the source give for `CCCCCCCCCCCCCOS(=O)(=O)[O-].[Na+]` [SODIUM TRIDECYL SULFATE] here?
Answer: 600 µM

Question: With `CCCCCCCCCCS(=O)(=O)[O-].[Na+]` as the compound, how does the CMC read?
Answer: 25000 µM

Question: For `CCCCCCCCCCCCS(=O)(=O)[O-].[Na+]`, which CMC is on record?
Answer: 5000 µM

Question: With `CCCCCCCCCCCCCCCCS(=O)(=O)[O-].[Na+]` as the compound, how does the CMC read?
Answer: <= 100 uM

Question: For `CCCCC(CC)CCC(CC(C)C)OS(=O)(=O)[O-].[Na+]` (stereo not given) [SODIUM TETRADECYL SULFATE], which CMC is on record?
Answer: 150 µM

Question: For `CCCCCCCCS(=O)(=O)[O-].[Na+]`, which CMC is on record?
Answer: > 250000 µM

Question: With `CCCCCCCCCCOS(=O)(=O)[O-].[Na+]` [SODIUM DECYL SULFATE] as the compound, how does the CMC read?
Answer: 15000 µM

Question: Which CMC does the source give for `CCCCCCCC(=O)[O-].[Na+]` [SODIUM CAPRYLATE] here?
Answer: 200000 µM

Question: Which CMC does the source give for `CCCCCCCCCCCCOS(=O)(=O)[O-].[Na+]` [SODIUM LAURYL SULFATE] here?
Answer: 2000 µM

Question: For `CCCCCCCCCCCC(=O)[O-].[Na+]` [SODIUM DODECANOATE], which CMC is on record?
Answer: 2500 µM

Question: Which CMC does the source give for `CCCCCCCCOS(=O)(=O)[O-].[Na+]` [SODIUM OCTYL SULFATE] here?
Answer: 30000 µM

Question: Which CMC does the source give for `CCCCCCCCCCCCCCCCCCOS(=O)(=O)[O-].[Na+]` [SODIUM OCTADECYL SULFATE] here?
Answer: < 100 µM
